Data reported in US20250179429A1, “CELL CULTURE MEDIUM” (Auckland UniServices Limited, priority 2017, published 2025).
Entries after “also recorded” stand apart in the source; their conditions may differ. Counter-ions that a name gives are not always drawn. Like-named read-outs stand apart in the source and are kept apart here.

Legend:
[1] = tested on: Human primary keratinocytes; assay: Keratinocyte growth in culture media: rhodamine B staining, confluency measured with Operetta plate reader; assay type: cell-based; conditions: for effect of ROCK inhibitor on keratinocyte growth, FIG. 3: Y27632 10 μm vs SB772077B 400 nM in Base, Kelch's or Green's medium, 3 donors; for effect of Y27632 on keratinocyte growth, FIG. 5: 8 days
[2] = tested on: epidermal cells; assay: Greens, Cellntech, S7, EDGS medium comparison (rhodamine B, confluency score 0 to 4); assay type: cell-based; conditions: added to Green's medium with MEFs and commercial keratinocyte growth media
Method: Epidermal cells were grown in Greens medium with MEFs, CnT Prime, Epilife medium supplemented with S7 or EDGS. All media were tested with and without ROCK inhibitor Y27632. 550,000 epidermal cells were grown in each medium until one sample reached 80% confluence, at this point all samples were fixed and stained for rhodamine B. Sample confluency was then assigned a score between 0 and 4, 0 having no cells, and 4 having maximum confluency. N=2.
Flasks were pre-coated with a coating matrix for S7 and EDGS supplemented Epilife medium samples. 1.7 ml of dilution buffer was added to each T25 flask. Then 17 μl of coating matrix was added. The mixture was incubated at room temperature for 30 minutes. Next, the dilution buffer and coating matrix mix were removed from the flasks before adding cells and media.
550,000 epidermal cells and 5 ml of each required medium was added, with or without 10 μl Y27632, to a T25 flask. The flask was incubated at 37° C. with 5% CO2 until one sample reached 80% confluency.
Next, the medium was removed from the flasks and the cells fixed with 4% formaldehyde for 30 minutes. 1% rhodamine B solution was added and the cells incubated at room temperature for 10 minutes. The rhodamine B solution was removed and the cells thoroughly rinsed with water. Finally, all liquid from the flasks was removed using a pipette. The cells were imaged and confluency was calculated.

[3] = Green's media + Y27632, MEFs not present

## choleratoxin
[1]
  effect on keratinocyte growth of leaving one component out of Green's media, FIG. 1: important components of Green's medium in generating keratinocyte proliferation; also recorded: negatively affect keratinocyte growth; also recorded: one of the most important single ingredients of Green's media

## EGF: epidermal growth factor, component of Green's medium at 10 ng/ml (NSDSECPLSHDGYCLHDGVCMYIEALDKYACNCVVGYIGERCQYRDLKWWELR; Epidermal growth factor; UniProt P01133 971-1023, looked up)
[1]; [3]
  effect on keratinocyte growth of leaving one component out of Green's media, FIG. 1: important components of Green's medium in generating keratinocyte proliferation; also recorded: negatively affect keratinocyte growth
[1]; data not shown
  effect of EGF on keratinocyte growth (later finding): not enhancing keratinocyte growth

## CCn1c(-c2nonc2N)nc2cncc(C(=O)N3CC[C@H](N)C3)c21 [SB772077B, (3S)-1-[[2-(4-Amino-1,2,5-oxadiazol-3-yl)-1-ethyl-1H-imidazo[4,5-c]pyridin-7-yl]carbonyl]-3-pyrrolidinamine dihydrochloride, reference compound]
[1]; SB 772077B vs Y27632
  ROCK inhibitor concentration to achieve the same effect (enhancing keratinocyte growth rates): ~400 nm
[1]; dihydrochloride
  effect of ROCK inhibitor on keratinocyte growth, FIG. 3: comparable effects on keratinocyte growth; also recorded: can be used as substitute for Y27632 for keratinocyte growth

## C[C@@H](N)[C@H]1CC[C@H](C(=O)Nc2ccncc2)CC1 [Y27632, reference compound]
[2]
  effect of Y27632 on keratinocyte growth, FIG. 6: may also enhance growth of keratinocytes in other keratinocyte growth media; also recorded: enhanced keratinocyte growth in Green's medium, S7 medium and CnT Prime medium
[1]
  effect of ROCK inhibitor on keratinocyte growth, FIG. 3: comparable effects on keratinocyte growth
[1]; Y27632 vs SB 772077B
  ROCK inhibitor concentration to achieve the same effect (enhancing keratinocyte growth rates): 10 μm
[1]; added to Green's medium with MEFs
  effect of Y27632 on keratinocyte growth, FIG. 5: can enhance growth of keratinocytes
[1]; added to serum-free Optipeak media
  effect of Y27632 on keratinocyte growth, FIG. 5: enhanced growth of keratinocytes; also recorded: a few colonies started to develop

## Nc1ncnc2nc[nH]c12 [adenine]
[1]; [3]
  effect on keratinocyte growth of leaving one component out of Green's media, FIG. 1: appears to enhance growth of keratinocytes
